{
  "source": "patent US20220175675A1",
  "about": "“ENCAPSULATING MOLECULES IN FAT GLOBULES” (The Regents of the University of California, priority 2019, published 2022)",
  "key": {"[1]": {"experiment": "Loading of vitamin D3 in bovine milk fat globules", "assay_type": "physicochemical", "conditions": "for EE %, 1% v/v ethanol / EE %, 10% v/v ethanol / LY, 1% v/v ethanol / LY, 10% v/v ethanol: Bovine MFGs, 30 minutes", "description": "(§1) Raw milk was diluted with Milli-Q water at 9:1 water to milk. Cream was separated from diluted milk via centrifugation at 3,000×g for 5 min. Cream was collected and reconstituted in water at 4% w/v concentration. The mixture was then further centrifuged at 3,000×g for 5 min. The cream was then collected and reconstituted to desired weight/volume in water (20% w/v in water).\n(§2) Encapsulation of VD3 was achieved by incubation of compound's ethanolic solution with 20% w/v cream suspended in water. Once well mixed by gently inverting the tube, the contents were allowed to incubate in the dark. […] Significant values were reported with a 95% confidence interval, i.e. p<0.05.\nIncubation time was varied: 15, 30, 45, and 60 min. The effect of incubation time on the encapsulation of VD3 in bovine MFGs was assessed using a t-test with adjusted significance level using Bonferroni correction (p=0.008). These statistical analyses were carried out using Microsoft Excel 2010 (Microsoft Inc., Bellevue, WA, U.S.A.). All procedures were conducted with minimal exposure to light. The experiments were conducted in triplicates.\n(§3) At the end of the incubation period with VD3, cream was separated by centrifuging the suspension at 3,000×g for 5 min Cream was skimmed off the top with particular care not to include any of the aqueous phase. Methanol was added at 50 mg/mL and vortexed vigorously for 1 min. The mixture was then centrifuged at 3,000×g for 30 min. Liquid phase was collected and absorbance was measured at 264 nm. Absorbance blank was prepared fresh during every encapsulation run by introducing ethanol to cream suspended in water. Absorbance of the blank was subtracted from test samples to remove the absorbance of solvent, lipids, and other MFGs components. All experiments were conducted in triplicates.\n(§4) Fat content in cream was measured to calculate the loading yield. The fat was isolated using the same set of preparation steps detailed in Example 13 with the addition of the last centrifugation step to recover cream after at the end of the loading process. The total fat content was determined using a modified Folch method (Folch, Lees, & Sloane-Stanley, 1957) where an additional step of washing the chloroform/water interface with 1:1 water/methanol solution was added to remove milk serum components. The loading yield of VD3 in milk fat was calculated as follows: […]\n(§5) where CE is the VD3 extracted from MFGs (μg), and MF is the mass of milk fat (g) in MFGs suspension. The extraction procedure was conducted in triplicates using independent milk samples."}, "[2]": {"experiment": "Loading of vitamin D3 in ovine milk fat globules", "assay_type": "physicochemical", "conditions": "for EE %, 1% v/v ethanol / EE %, 10% v/v ethanol / LY, 1% v/v ethanol / LY, 10% v/v ethanol: Ovine MFGs, 30 minutes", "description": "as §1, §2, §3, §4, §5"}},
  "data": [
    {"compound": "C=C1CC[C@H](O)C/C1=C/C=C1\\CCC[C@]2(C)[C@@H]([C@H](C)CCCC(C)C)CC[C@@H]12", "note": "[Cholecalciferol]", "values": [
      {"measurement": "EE %, 1% v/v ethanol", "setting": "[1]; 50 μM", "result": "20.81 ± 8.82", "unit": "%"},
      {"measurement": "EE %, 10% v/v ethanol", "setting": "[1]; 50 μM", "result": "27.72 ± 7.94", "unit": "%"},
      {"measurement": "LY, 1% v/v ethanol", "setting": "[1]; 50 μM", "result": "19.78 ± 8.38 μg of VD3 per gram of milk fat"},
      {"measurement": "LY, 10% v/v ethanol", "setting": "[1]; 50 μM", "result": "26.34 ± 7.55 μg of VD3 per gram of milk fat"},
      {"measurement": "EE %, 1% v/v ethanol", "setting": "[1]; 100 μM", "result": "18.45 ± 0.91", "unit": "%"},
      {"measurement": "EE %, 10% v/v ethanol", "setting": "[1]; 100 μM", "result": "21.09 ± 1.10", "unit": "%"},
      {"measurement": "LY, 1% v/v ethanol", "setting": "[1]; 100 μM", "result": "35.07 ± 1.73 μg of VD3 per gram of milk fat"},
      {"measurement": "LY, 10% v/v ethanol", "setting": "[1]; 100 μM", "result": "40.09 ± 2.10 μg of VD3 per gram of milk fat"},
      {"measurement": "EE %, 1% v/v ethanol", "setting": "[1]; 150 μM", "result": "15.43 ± 1.27", "unit": "%"},
      {"measurement": "EE %, 10% v/v ethanol", "setting": "[1]; 150 μM", "result": "20.67 ± 1.97", "unit": "%"},
      {"measurement": "LY, 1% v/v ethanol", "setting": "[1]; 150 μM", "result": "44.00 ± 3.63 μg of VD3 per gram of milk fat"},
      {"measurement": "LY, 10% v/v ethanol", "setting": "[1]; 150 μM", "result": "58.93 ± 5.61^†¥ μg of VD3 per gram of milk fat"},
      {"measurement": "EE %, 1% v/v ethanol", "setting": "[1]; 200 μM", "result": "12.31 ± 3.56", "unit": "%"},
      {"measurement": "EE %, 10% v/v ethanol", "setting": "[1]; 200 μM", "result": "18.51 ± 1.52", "unit": "%"},
      {"measurement": "LY, 1% v/v ethanol", "setting": "[1]; 200 μM", "result": "46.78 ± 13.52 μg of VD3 per gram of milk fat"},
      {"measurement": "LY, 10% v/v ethanol", "setting": "[1]; 200 μM", "result": "70.37 ± 5.79^†‡¥ μg of VD3 per gram of milk fat"},
      {"measurement": "EE %, 1% v/v ethanol", "setting": "[1]; 250 μM", "result": "14.28 ± 1.89", "unit": "%"},
      {"measurement": "EE %, 10% v/v ethanol", "setting": "[1]; 250 μM", "result": "16.85 ± 2.94", "unit": "%"},
      {"measurement": "LY, 1% v/v ethanol", "setting": "[1]; 250 μM", "result": "67.84 ± 9.00 μg of VD3 per gram of milk fat"},
      {"measurement": "LY, 10% v/v ethanol", "setting": "[1]; 250 μM", "result": "80.07 ± 14.00 μg of VD3 per gram of milk fat"},
      {"measurement": "VD3 loaded into MFGs (up to)", "setting": "[1]; bovine MFGs", "result": "Up to 80 μg/g milk fat"},
      {"measurement": "reduction in the encapsulation yield with extended incubation", "setting": "[1]; bovine MFGs, incubation up to 60 min vs 45 min, 10% v/v ethanol, 250 μM VD3", "result": "approx. 8%"},
      {"measurement": "EE %, 1% v/v ethanol", "setting": "[2]; 50 μM", "result": "11.75 ± 0.44", "unit": "%"},
      {"measurement": "EE %, 10% v/v ethanol", "setting": "[2]; 50 μM", "result": "37.83 ± 10.36", "unit": "%"},
      {"measurement": "LY, 1% v/v ethanol", "setting": "[2]; 50 μM", "result": "11.17 ± 0.41 μg of VD3 per gram of milk fat"},
      {"measurement": "LY, 10% v/v ethanol", "setting": "[2]; 50 μM", "result": "35.95 ± 9.85 μg of VD3 per gram of milk fat"},
      {"measurement": "EE %, 1% v/v ethanol", "setting": "[2]; 100 μM", "result": "10.70 ± 3.12", "unit": "%"},
      {"measurement": "EE %, 10% v/v ethanol", "setting": "[2]; 100 μM", "result": "20.29 ± 4.85", "unit": "%"},
      {"measurement": "LY, 1% v/v ethanol", "setting": "[2]; 100 μM", "result": "20.35 ± 5.93 μg of VD3 per gram of milk fat"},
      {"measurement": "LY, 10% v/v ethanol", "setting": "[2]; 100 μM", "result": "38.56 ± 9.23 μg of VD3 per gram of milk fat"},
      {"measurement": "EE %, 1% v/v ethanol", "setting": "[2]; 150 μM", "result": "10.17 ± 0.67", "unit": "%"},
      {"measurement": "EE %, 10% v/v ethanol", "setting": "[2]; 150 μM", "result": "18.95 ± 6.34", "unit": "%"},
      {"measurement": "LY, 1% v/v ethanol", "setting": "[2]; 150 μM", "result": "29.01 ± 1.92 μg of VD3 per gram of milk fat"},
      {"measurement": "LY, 10% v/v ethanol", "setting": "[2]; 150 μM", "result": "54.03 ± 18.08 μg of VD3 per gram of milk fat"},
      {"measurement": "EE %, 1% v/v ethanol", "setting": "[2]; 200 μM", "result": "8.49 ± 1.65", "unit": "%"},
      {"measurement": "EE %, 10% v/v ethanol", "setting": "[2]; 200 μM", "result": "14.30 ± 3.90", "unit": "%"},
      {"measurement": "LY, 1% v/v ethanol", "setting": "[2]; 200 μM", "result": "32.28 ± 6.26 μg of VD3 per gram of milk fat"},
      {"measurement": "LY, 10% v/v ethanol", "setting": "[2]; 200 μM", "result": "54.33 ± 14.83 μg of VD3 per gram of milk fat"},
      {"measurement": "EE %, 1% v/v ethanol", "setting": "[2]; 250 μM", "result": "8.13 ± 1.27", "unit": "%"},
      {"measurement": "EE %, 10% v/v ethanol", "setting": "[2]; 250 μM", "result": "10.31 ± 1.14", "unit": "%"},
      {"measurement": "LY, 1% v/v ethanol", "setting": "[2]; 250 μM", "result": "38.62 ± 6.06 μg of VD3 per gram of milk fat"},
      {"measurement": "LY, 10% v/v ethanol", "setting": "[2]; 250 μM", "result": "49.00 ± 5.43 μg of VD3 per gram of milk fat"},
      {"measurement": "VD3 loaded into MFGs (up to)", "setting": "[2]; ovine MFGs", "result": "≤ 54", "unit": "μg/g milk fat"}
    ]}
  ]
}
